Measured values published in patent US20250122242A1, “SELECTION SYSTEMS, PEPTIDES DETERMINED THEREWITH, AND METHODS OF USING SAME” (Wisconsin Alumni Research Foundation, priority 2023, published 2025).

Assays:
hIAPP-T7n = hIAPP-T7n (UniProt P00573+P10997); details: positive selection on hIAPP, high-throughput sequencing; for Rank (positive selection): top enriched sequences
Text: Next, we examined if our system could discover inhibitors of other disease-associated APPs. We targeted human islet amyloid polypeptide (hIAPP), which forms amyloid deposits in patients with type-2 diabetes that are hypothesized to contribute to […] dysfunction.^40 To create a selection for hIAPP aggregation inhibitors, we simply cloned hIAPP in place of Aβ42 in our selection circuit (FIG. 2B). We used an SP-encoded CZ6 SICLOPPS library (Z=NDT codon encoded amino acid: R, N, D, C, G, H, I, L, F, S, Y, or V) (˜3×10^6 total sequences). This codon set was chosen to reduce the theoretical library size and facilitate library cloning. The library (total of ˜5×10^6 transformants) was cloned on a SP obtained from an additional 250 hours of PACE using a more stringent selection (FIGS. 10A-10D).
We performed five rounds of selection, diluting the SP pool by ten-fold each round (FIG. 4A). […] To verify that we selected phage with higher activity, we measured the propagation of the SP from each round on hIAPP selection cells, normalizing input phage titers to […] to enable head-to-head comparison between phage pools.
(§1) Single colonies of host cells transformed with the appropriate selection plasmids were used to make overnight cultures in 2×YT with maintenance antibiotics. The overnight culture was diluted (1:100) into 4-5 mL DRM with maintenance antibiotics and incubated at 37° C. with shaking until the OD600 of the culture reached ˜0.5, upon which the expanded phage library was added at a titer of 1×10^6 pfu/mL. The culture was incubated at 37° C. with shaking overnight (13-18 h). The next day, the culture was centrifuged at 8,000 rcf for 2 min to obtain the supernatant containing phage. The collected phage was diluted into fresh host cell cultures (10 to 1,000-fold) for the next round of selection, while the rest was stored at 4° C. for downstream analysis. This process was repeated until a significant increase in phage propagation was observed compared with the parent library. Both positive and negative selection rounds were performed using this procedure.
(§2) Sample preparation. Phage stocks collected from the final rounds of library selection were first amplified using LY0145 and LY0146. The PCR product was purified, and adapters added using LY0147 and LY0148. The resulting PCR product was purified and barcoded through a final PCR using index primers to add unique indices for shared Illumina NovaSeq sequencing. The final PCR product was purified, and the concentration measured by Nanodrop. Further sample quality control was performed by the University of Wisconsin-Madison Biotechnology Center (UWBC).
(§3) High-throughput sequencing and data analysis. High-throughput sequencing was performed by UWBC using a shared sequencing service on the NovaSeq 6000 platform. Sequencing reads were demultiplexed by UWBC and analyzed using custom-written Python scripts.

Aβ42-T7n [1] = target: T1, Aβ42-T7n (UniProt P00573+P05067); details: for Fold enrichment in negative vs. positive selection: percent reads negative vs. positive selection; for Percent total reads (negative selection) / Rank (negative selection): subsequent negative selection against Aβ42, high-throughput sequencing
Text: To create a negative selection, we placed gIII-neg, a dominant-negative form of gIII,^44 under PT7 in our selection circuit. Inhibition of a non-target APP (ex. Aβ42) triggers pIII-neg expression and poisons phage proliferation. A second plasmid produces small amounts of pIII from the phage shock promoter (FIG. 16A). All SPs infecting cells encoding this negative selection receive sufficient pIII to propagate. However, SP that carry a promiscuous or false positive cyclic peptide will also produce pIII-neg and generate non-infectious progeny (FIGS. 16B and 16C). We subjected the hIAPP round 5 phage population to four rounds of negative selection, diluting the phage by 100-fold each round (FIG. 5B).
as §1, §2, §3

Aβ42-T7n [2] = target: T1, Aβ42-T7n; details: cyclo-CX6 library, seven rounds on Aβ42-T7n, deep sequencing
Method: as §1
Sample preparation. Phage stocks collected from the final rounds of library selection were first amplified using LY0145 and LY0146. The PCR product was purified, and adapters added using LY0147 and LY0148. […] The final PCR product was purified, and the concentration measured by Nanodrop. […]
High-throughput sequencing and data analysis. […] Sequencing reads were demultiplexed by UWBC and analyzed using custom-written Python scripts.

Aβ42-GFP = Aβ42-GFP folding reporter fluorescence assay; format: cell-based, E. coli; details: expressed from plasmid, 0.04 mM IPTG, compared with CKVWQLL (FIG. 3H)
Method: Single colonies of S2060s transformed with pBL066c and SICLOPPS plasmid were used to make overnight cultures in 2×YT with maintenance antibiotics. The overnight culture was diluted (1:100) into 1 mL DRM on a 96 deep-well plate (VWR, 75870-796) with maintenance antibiotics and IPTG (0, 0.04, 0.2, or 1 mM). The diluted culture was incubated at 37° C. with shaking for 2.5 h, after which aTc (200 ng/mL) was added. 100 μL of the culture was transferred onto a black clear-bottom 96-well plate (VWR, 89131-680) to measure fluorescence signal 2, 3, 5 h after addition of aTc. GFP fluorescence signal (excitation wavelength=485 nm, emission wavelength=535 nm) was then measured using a Tecan M Plex microplate reader.

Aβ42-T7n [3] = target: T1, Aβ42-T7n
Text: Therefore, we turned to a split-T7 RNA polymerase (T7 RNAP) reporter used to evolve proteins with improved soluble expression.^33 In our new selection, host E. coli express an aggregation-prone protein (APP) fused to the N-terminal half of split-T7 RNAP (T7n). When the APP-T7n fusion is translated, it misfolds due to the APP, preventing T7n from associating with the C-terminal half of split-T7 RNAP (T7c; FIG. 2A). If a SP-encoded inhibitor binds to and prevents APP aggregation, the fused T7n will remain folded and join with T7c to produce full-length T7 RNAP. The reconstituted T7 RNAP then transcribes gIII, which we place under control of the T7 promoter (PT7), producing pill and allowing the SP to reproduce (FIGS. 2A and 2B).
We used the SICLOPPS method to biosynthesize cyclic peptides that can be selected in E. coli.^15 In SICLOPPS, a precursor fusion consisting of the C-terminal half of the Ssp DnaE split intein, the peptide sequence to be cyclized, and the N-terminal half of the same split intein undergoes intein splicing after translation to produce head-to-tail cyclized peptides (FIG. 7).
Strain S206035 was used for plasmid cloning, amplification, and phage assays. Strain S220835 was used for SP cloning and plaque assays. Plasmids and SPs were cloned by USER assembly or blunt-end ligation. Competent cells were prepared and transformed using the TSS method. Phage propagation and plaque assays were performed as previously described.^54 Unless otherwise noted, phage propagation assays used an input of […] phage to infect a 2 mL culture of host cells.

hIAPP = target: T2, hIAPP (Homo sapiens, UniProt P10997); assay: ThT fluorescence assay of in vitro hIAPP aggregation; format: biochemical; details: chemically synthesized peptide, 10 μM hIAPP, PBS pH 6.9, 32° C., quiescent
T2 construct: A 1 mg portion of amylin trifluoroacetate salt (Bachem) was purchased as lyophilized solid in a vial; purchased Bachem
T2 sequence (P10997 34-70 limits assumed): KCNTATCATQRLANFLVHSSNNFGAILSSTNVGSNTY
Method: Preparation of ThT stock solution. To prepare a stock solution of ThT (2-3 mM), 2-4 mg of ThT was added to 3 mL PBS (pH 6.9) in a 15 mL conical tube. The solution was sonicated for 5 min and the supernatant was filtered through a 0.22 μm syringe filter into a 1.5 mL Eppendorf tube. This was the ThT stock solution to be used in following experiments. 2 mL of a 1:200 diluted ThT solution was prepared by adding 10 μL ThT stock solution into 1990 μL PBS. The absorbance of the diluted ThT solution measured at 412 nm was used to calculate the ThT stock concentration using an extinction coefficient (c) of 31600 M^−1 cm^−1.
Preparation of hIAPP stocks. A 1 mg portion of amylin trifluoroacetate salt (Bachem) was purchased as lyophilized solid in a vial. The solid was dissolved in pre-chilled 2562 μL 35 mM sodium acetate (pH 5.3) to a stock concentration of 100 μM on ice. Aliquots of hIAPP were prepared by transferring 200 μL of the 100 μM hIAPP stock solution to low-protein-binding Eppendorf tubes on ice. The aliquots were then immediately snap frozen using liquid N2, lyophilized for 24 h, and stored at −80° C. until use.
Preparation of samples for ThT assays. Using cyclic peptide stock solution (100 μM) and PBS, 400 μL aqueous solution of cyclic peptide was prepared in a low-protein-binding Eppendorf tube to achieve the desired cyclic peptide:hIAPP molar ratio (80 μM for 4:1, 40 μM for 2:1, 20 μM for 1:1, 10 μM for 0.5:1, 0 μM for 0:1). 30 μL of the solution was then loaded to wells on a black clear-bottom low-binding 96-well plate (Corning 3881) to make a triplicate for each condition. This plate loaded with aqueous solutions of cyclic peptides was then ready for adding hIAPP.
Preparation and addition of hIAPP for ThT assays. Using ThT stock solution and PBS, 1 mL ThT solution (10 μM) was prepared in a low-protein-binding Eppendorf tube and chilled on ice. 0.5 mL of the pre-chilled ThT solution was added to one aliquot of lyophilized hIAPP, which was equilibrated to room temperature before opening the tube. Pipetting up and down four times was performed to facilitate complete dissolving of hIAPP. The 0.5 mL hIAPP-containing solution was immediately transferred to the remaining 0.5 mL ThT solution on ice. Pipetting up and down four times was performed to facilitate complete mixing. The resulting 1 mL hIAPP solution, where [hIAPP]=20 μM, was immediately transferred to a 25 mL liquid reservoir. Using a multi-channel pipette, 30 μL of the hIAPP solution was quickly loaded into wells containing aqueous solutions of cyclic peptides on the 96-well plate. Final [hIAPP]=10 μM, [ThT]=5 μM.
ThT assay conditions. The plate was then quickly covered and incubated in a Tecan M Plex microplate reader under quiescent condition at 32° C. for at least 12 h. ThT fluorescence at 480 nm was measured every 5 min through the bottom of the plate using an excitation wavelength of 440 nm.
Fitting of aggregation kinetics. ThT aggregation kinetics data was fit to a sigmoidal function using GraphPad Prism and the aggregation lag time (tlag) and the apparent fibril elongation rate (kapp) calculated as described.^55

hIAPP-T7n, sequence (P10997+P00573 fused): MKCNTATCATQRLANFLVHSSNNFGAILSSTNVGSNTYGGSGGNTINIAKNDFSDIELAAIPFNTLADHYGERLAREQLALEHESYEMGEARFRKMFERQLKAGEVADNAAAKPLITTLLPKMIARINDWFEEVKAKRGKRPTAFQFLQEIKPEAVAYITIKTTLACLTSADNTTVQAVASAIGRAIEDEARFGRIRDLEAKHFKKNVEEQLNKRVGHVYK
T1 sequence (P05067+P00573 fused): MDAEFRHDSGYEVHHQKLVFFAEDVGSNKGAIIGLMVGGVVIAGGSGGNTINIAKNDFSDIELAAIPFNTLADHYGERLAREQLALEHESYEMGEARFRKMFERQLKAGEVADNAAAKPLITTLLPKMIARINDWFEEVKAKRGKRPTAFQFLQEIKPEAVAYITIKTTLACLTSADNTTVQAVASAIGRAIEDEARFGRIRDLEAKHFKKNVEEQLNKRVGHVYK
Aβ42-GFP, sequence (P05067 672-713): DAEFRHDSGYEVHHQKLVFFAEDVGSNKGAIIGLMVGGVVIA

| Substance | Percent total reads (positive selection) (hIAPP-T7n) [%] | Rank (positive selection) (hIAPP-T7n) | Fold enrichment in negative vs. positive selection (Aβ42-T7n [1]) | Percent total reads (negative selection) (Aβ42-T7n [1]) [%] | Rank (negative selection) (Aβ42-T7n [1]) | share of total sequencing reads in final SP pool (Aβ42-T7n [2]) [%] | activity in Aβ42-GFP folding reporter assay (Aβ42-GFP) | phage propagation activity (fitness) on Aβ42-T7n selection (Aβ42-T7n [3]; clonal SP encoding the sequence) | inhibition of hIAPP aggregation (ThT fluorescence) (hIAPP) | discrimination between active SP and scrambled control (phage propagation) (Aβ42-T7n [3]; evolved SP (PACE 1 clone 2) (FIG. 2D)) [fold] | increase in phage proliferation compared to SP carrying scrambled control (Aβ42-T7n [3]; parent SP, vs CVQWLKL SP (FIG. 8A)) [fold] |
| --- | --- | --- | --- | --- | --- | --- | --- | --- | --- | --- | --- |
| CLNYFHG | 0.35 | 3 | 20.08 | 7.05 | 3 |  |  |  |  |  |  |
| CVSYILL | 0.11 | 10 | 4.21 | 0.45 | 16 |  |  |  |  |  |  |
| CGLGHGN | 0.009 | 53 | 124.22 | 1.12 | 10 |  |  |  |  |  |  |
| CRVWCAR (cyclic; Circular) [cyclo-CRVWCAR] |  |  |  |  |  | ~65 | comparable activity to CKVWQLL | robust propagation |  |  |  |
| linear CDLGVFR |  |  |  |  |  |  |  |  | completely inactive |  |  |
| CNRLDVS | 0.02 | 26 | 83.68 | 1.84 | 9 |  |  |  |  |  |  |
| CCHSFFR | 0.29 | 6 | 2.87 | 0.83 | 12 |  |  |  |  |  |  |
| CGIRSLG | 0.22 | 7 | 20.09 | 4.48 | 7 |  |  |  |  |  |  |
| CFFRGSD | 0.06 | 18 | 81.53 | 4.73 | 6 |  |  |  |  |  |  |
| CIYFHHH | 0.12 | 9 | 28.44 | 3.33 | 8 |  |  |  |  |  |  |
| CHVHSYL | 1.82 | 2 | 3.31 | 6.03 | 4 |  |  |  |  |  |  |
| CFNLVVD | 0.08 | 15 | 64.65 | 4.85 | 5 |  |  |  |  |  |  |
| CISCHYG | 0.13 | 8 | 0.92 | 0.12 | 34 |  |  |  |  |  |  |
| cyclo-CKVWQLL [CKVWQLL SP, reference compound] |  |  |  |  |  |  |  |  |  | ~300 | ~500 |
| CYILSIG | 0.34 | 4 | 1.10 | 0.37 | 18 |  |  |  |  |  |  |
| CCGLYNI | 0.31 | 5 | 0.48 | 0.15 | 31 |  |  |  |  |  |  |
| linear CHVVGVI [linear CHWGVI] |  |  |  |  |  |  |  |  | greatly reduced ability to inhibit hIAPP |  |  |
| linear CRCVFSG [linear CRCVSFG] |  |  |  |  |  |  |  |  | moderately inhibited hNAPP aggregation |  |  |
